Measurements as given in US9408393B2, “Bismuth-thiols as antiseptics for agricultural, industrial and other uses” (Microbion Corporation, priority 2010, dated 2016).
Read-outs that look alike come from different tables or passages of the source.

Tests used:
[1] = test system: Pseudomonas aeruginosa; assay: Single-point BisEDT-antibiotic combination FICI; type: cell-based; details: PA 1380
[2] = test system: Klebsiella pneumoniae; assay: Single-point BisEDT-antibiotic combination FICI; type: cell-based; details: KP 1231
[3] = test system: Escherichia coli; assay: Single-point BisEDT-antibiotic combination FICI; type: cell-based
[4] = test system: P. aeruginosa; assay: Checkerboard broth microdilution MIC and FICI; type: cell-based, Pseudomonas aeruginosa; details: Pseudomonas aeruginosa, compound alone, read-out: MIC (μg/mL) Alone
Experimental: (§1) The effects of combinations of microparticulate Bis-EDT and four Bis-EDT analogs prepared as described above, and other agents against representative strains of several Gram-negative pathogenic bacteria were tested. A modification of a common laboratory method was used to determine synergism (FICI≦0.5), enhancement (0.5<FICI≦1.0), antagonism (FICI>4.0) and indifference (1.0<FICI≦4.0) used fractional inhibitory concentrations (FICs) and FIC indices (FICI) (Eliopoulos G and R Moellering. 1991. Antimicrobial combinations. In Antibiotics in Laboratory Medicine, Third Edition, edited by V Lorian. Williams and Wilkins, Baltimore, Md., pp. 432-492; Odds, 2003 J. Antimicrob. Chemother. 52(1):1). The checkerboard technique was used to determine FIC indices and was employed in this study.
(§2) Stock solutions of all test articles were prepared at 40× the final target concentration in the appropriate solvent. […] The final drug concentrations in the FIC assay plates were set to bracket the MIC value of each agent for each test organism, unless the strain was totally resistant to the test agent. […] The test organisms were originally received from clinical sources, or from the American Type Culture Collection. Upon receipt, the isolates were streaked onto Tryptic Soy Agar II (TSA). Colonies were harvested from these plates and a cell suspension was prepared in an appropriate broth growth medium containing cryoprotectant. Aliquots were then frozen at −80° C. The frozen seeds of the organisms to be tested in a given assay were thawed, streaked for isolation onto TSA plates, and incubated at 35° C. All organisms were tested in Mueller Hinton II Broth (Becton Dickinson, Lot No. 9044411). The broth was prepared at 1.05× normal weight/volume to offset the 5% volume of the drugs in the final test plates.
(§3) Minimal Inhibitory Concentration (MIC) values were previously determined using the broth microdilution method for aerobic bacteria (Clinical and Laboratory Standards Institute (CLSI). Methods for Dilution Antimicrobial Susceptibility Tests for Bacteria That Grow Aerobically; Approved Standard—Eighth Edition. CLSI document M07-A8 [ISBN 1-56238-689-1]. Clinical and Laboratory Standards Institute, 940 West Valley Road, Suite 1400, Wayne, Pa. 19087-1898 USA, 2009.).
(§4) FIC values were determined using a broth microdilution method previously described (Sweeney et al., 2003 Antimicrob. Agents Chemother. 47(6):1902-1906). To prepare the test plates, automated liquid handlers (Multidrop 384, Labsystems, Helsinki, Finland; Biomek 2000 and Multimek 96, Beckman Coulter, Fullerton Calif.) were used to conduct serial dilutions and liquid transfers.
(§5) The appropriate wells of standard 96-well microdilution plates (Falcon 3918) were filled with 150 μL of the appropriate solvent in columns 2-12 using the Multidrop 384. Three hundred microliters of each secondary test drug was added to each well in Column 1 of the plates. These plates were used to prepare the drug “mother plates” which provided the serial drug dilutions for the drug combination plates. The Biomek 2000 was used to transfer 150 μL of each secondary drug solution (40×) from the wells in Column 1 of the mother plate and to make eleven 2-fold serial dilutions. Mother plates of Bis-EDT (and analogs) were serial diluted top to bottom by hand, using a multichannel pipette. Two mother plates, one for each secondary drug and one for Bis-EDT (or analogs), were combined to form a “checkerboard” pattern by transfer of equal volumes (using a multi-channel pipette) to the drug combination plate. Row H and Column 12 each contained serial dilutions of one of the agents alone for determination of the MIC.
(§6) The “daughter plates” were loaded with 180 μL of test medium using the Multidrop 384. Then, the Multimek 96 was used to transfer 10 μL of drug solution from each well of the drug combination mother plate to each corresponding well of the daughter plate in a single step.

[5] = test system: Bukholderia multivorans; assay: Single-point BisEDT-antibiotic combination FICI; type: cell-based; details: Bmult 5665
[6] = test system: Burkholderia cepacia; assay: Single-point BisEDT-antibiotic combination FICI; type: cell-based; details: Bcep 1756
[7] = test system: Acinetobacter baumanii; assay: Single-point BisEDT-antibiotic combination FICI; type: cell-based; details: Abau 2594
[8] = test system: Staphylococcus aureus (SA, MRSA); assay: Single-point BisEDT-antibiotic combination FICI; type: cell-based
[9] = test system: Streptococcus pneumoniae (SP, PRSP); assay: Single-point BisEDT-antibiotic combination FICI; details: PRSP 5348
[10] = test system: Gram-negative pathogenic bacteria; assay: Checkerboard broth microdilution MIC and FICI; type: cell-based; details: compound alone; for MIC: Klebsiella pneumoniae, read-out: MIC (μg/mL) Alone
Experimental: as §1, §2, §3, §4, §5, §6

[11] = test system: Enterococcus faecalis; assay: Single-point BisEDT-antibiotic combination FICI; type: cell-based; details: E Fc 3121

SMILES	FICI, single-point BisEDT-antibiotic combination [1]	FICI, single-point BisEDT-antibiotic combination [2]	FICI, single-point BisEDT-antibiotic combination ([3]; EC 102)	FICI, single-point BisEDT-antibiotic combination ([3]; EC 2232)	FICI, single-point BisEDT-antibiotic combination [5]	FICI, single-point BisEDT-antibiotic combination [6]	FICI, single-point BisEDT-antibiotic combination [7]	FICI, single-point BisEDT-antibiotic combination ([8]; MRSA 773)	FICI, single-point BisEDT-antibiotic combination ([8]; SA 100)	FICI, single-point BisEDT-antibiotic combination [9]	FICI, single-point BisEDT-antibiotic combination [11]	further results
C[C@H]1[C@H](NC(=O)/C(=N\OC(C)(C)C(=O)O)c2csc(N)n2)C(=O)N1S(=O)(=O)O [Aztreonam]	0.55	0.73	0.74	1.29	0.96	0.67	0.87					MIC ([4]; P. aeruginosa 103): 8 µg/mL; MIC ([4]; P. aeruginosa 1381): 64 µg/mL; MIC ([4]; P. aeruginosa 1384): 8 µg/mL; MIC ([4]; P. aeruginosa 1474): 8 µg/mL; MIC ([4]; P. aeruginosa 1479): 8 µg/mL; MIC ([4]; P. aeruginosa 2566): 16 µg/mL; MIC ([4]; P. aeruginosa 2568): 8 µg/mL
CO/N=C(\C(=O)N[C@@H]1C(=O)N2C(C(=O)O)=C(COC(C)=O)CS[C@H]12)c1csc(N)n1 [Cefotaxime]	0.64	0.61	1.37	1.29	1.11	1.29	1.29	2.23	1.11	1.11	0.73	MIC ([4]; P. aeruginosa 103): 16 µg/mL; MIC (μg/mL) Alone ([10]; K. pneumoniae 1355): 0.12 µg/mL; MIC (μg/mL) Alone ([10]; K. pneumoniae 2238): 8 µg/mL; MIC (μg/mL) Alone ([10]; K. pneumoniae 2549): 0.06 µg/mL; MIC ([10]; K. pneumoniae 1346): 0.06 µg/mL; MIC ([10]; K. pneumoniae 1355): 0.06 µg/mL; MIC ([10]; K. pneumoniae 2238): 16 µg/mL; MIC ([10]; K. pneumoniae 2546): 0.25 µg/mL; MIC ([10]; K. pneumoniae 2549): 0.12 µg/mL
CO/N=C(\C(=O)N[C@@H]1C(=O)N2C(C(=O)O)=C(COC(N)=O)CS[C@H]12)c1ccco1 [Cefuroxime]								4.23	1.11	1.03	1.11	
O=C(O)c1cn(C2CC2)c2cc(N3CCNCC3)c(F)cc2c1=O [Ciprofloxacin]	2.75		1.14		2.29	2.23	1.04					
CC[C@H]1OC(=O)[C@H](C)[C@@H](O[C@H]2C[C@@](C)(OC)[C@@H](O)[C@H](C)O2)[C@H](C)[C@@H](O[C@@H]2O[C@H](C)C[C@H](N(C)C)[C@H]2O)[C@](C)(O)C[C@@H](C)C(=O)[C@H](C)[C@@H](O)[C@]1(C)O [Erythromycin]								0.67		1.03	0.92	
C[C@H]1COc2c(N3CCN(C)CC3)c(F)cc3c(=O)c(C(=O)O)cn1c23 [Levofloxacin]								1.11	1.23	0.70	1.08	
Cc1onc(-c2ccccc2)c1C(=O)N[C@@H]1C(=O)N2[C@@H]1SC(C)(C)[C@@H]2C(=O)O [Oxacillin]								2.28		1.03	0.92	
C[C@@H]1O[C@@H]1P(=O)(O)O [Phosphomycin]	1.86	1.02		1.96	1.23	1.29	1.12	0.61		1.45	1.23	
CCN1CCN(C(=O)N[C@@H](C(=O)N[C@@H]2C(=O)N3[C@@H]2SC(C)(C)[C@@H]3C(=O)O)c2ccccc2)C(=O)C1=O [Piperacillin]	0.67	2.23	0.87	1.29	1.12	1.12	1.12	1.28	0.57	1.11	1.11	
CN(C)[C@@H]1C(O)=C(C(N)=O)C(=O)[C@@]2(O)C(O)=C3C(=O)c4c(O)cccc4[C@@](C)(O)[C@H]3C[C@@H]12 [Tetracycline]	1.29	1.29	0.62	0.79	1.12	1.96	1.12	1.23	0.89	0.34	0.92	
